Laboratory results: PMC7469393, “Binding of 2-(Triazolylthio)acetamides to Metallo-β-lactamase CcrA Determined with NMR” (ACS Omega, 2020)

Key:
CcrA [1] = biological target: T1, CcrA (Bacteroides fragilis, UniProt P25910); assay: 1H, […] HSQC NMR titration, chemical shift perturbation, fast exchange; assay type: binding
CcrA [2] = biological target: T1, CcrA; assay: 1H, […] HSQC NMR titration, slow exchange (relative peak intensities); assay type: binding

T1 sequence (P25910 19-249): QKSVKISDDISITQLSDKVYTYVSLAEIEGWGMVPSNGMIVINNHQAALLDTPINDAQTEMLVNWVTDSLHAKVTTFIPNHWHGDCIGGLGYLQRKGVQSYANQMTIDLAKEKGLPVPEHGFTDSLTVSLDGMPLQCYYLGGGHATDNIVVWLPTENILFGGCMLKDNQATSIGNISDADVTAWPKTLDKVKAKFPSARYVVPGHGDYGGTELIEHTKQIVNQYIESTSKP

| SMILES | Kd (CcrA [1]) [µM] | Kd (CcrA [2]) [µM] |
| --- | --- | --- |
| O=C(CSc1nnc(-c2ccccc2C(=O)O)[nH]1)Nc1nc2ccccc2s1 [compound 4, 4] | 11 ± 11 | – |
| O=C(CSc1nnc(-c2ccccc2C(=O)O)[nH]1)Nc1ccccc1 [compound 5, 5] | 34 ± 43 | – |
| O=C(CSc1nnc(-c2ccccc2C(=O)O)[nH]1)Nc1ccc(Cl)cc1 [compound 6, 6] | – | ~2.3 |
